Source: patent publication US7799753B2, “Bisubstrate inhibitors of protein tyrosine kinases as therapeutic agents” (Board of Governers for Higher Education, priority 2004, dated 2010)
Blank lines part the entries; values can stand above or below the compound they belong to. Numbered stars: 1 amine (or outer) side, 2 acyl side, 3 side chain; on linkers, the order of the positions; unused ones are H or OH. Square brackets hold non-standard residues; d marks the D form. Peptide text beside a SMILES is read from it. * marks the point of attachment. X2 = CS(=O)(=O)Nc1ccc(C[C@H](N[*:1])C(=O)[*:2])cc1; Phe(4-NH2) = Nc1ccc(C[C@H](N)C(=O)O)cc1; X1 = Nc1ncnc2c1c(-c1ccccc1)nn2CC(=O)*

Key:
Src [1] = biological target: T1, Src (Homo sapiens, UniProt P12931); test: Steady-state kinetic radioactive assay with Src (polyE4Y, [γ-32P]ATP), ATP-phosphopeptide conjugates; type: biochemical
T1 sequence (P12931 whole entry, species assumed): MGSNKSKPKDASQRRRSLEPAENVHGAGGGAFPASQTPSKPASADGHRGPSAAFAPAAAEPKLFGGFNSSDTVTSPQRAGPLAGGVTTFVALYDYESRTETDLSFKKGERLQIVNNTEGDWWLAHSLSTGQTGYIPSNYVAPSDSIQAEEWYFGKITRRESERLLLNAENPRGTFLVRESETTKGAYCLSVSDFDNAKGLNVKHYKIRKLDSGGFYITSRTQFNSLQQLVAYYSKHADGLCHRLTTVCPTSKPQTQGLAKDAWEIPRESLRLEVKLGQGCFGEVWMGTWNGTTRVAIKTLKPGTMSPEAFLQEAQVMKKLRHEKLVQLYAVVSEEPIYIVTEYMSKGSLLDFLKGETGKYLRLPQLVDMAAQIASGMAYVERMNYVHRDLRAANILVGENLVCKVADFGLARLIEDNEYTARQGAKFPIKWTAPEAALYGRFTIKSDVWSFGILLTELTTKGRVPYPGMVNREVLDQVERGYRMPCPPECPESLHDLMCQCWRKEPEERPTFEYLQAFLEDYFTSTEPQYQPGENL
Description: Steady-State Kinetic Assays.
Artificial substrate polyE4Y (average MW: 35 kD) was used for routine kinase activity. The kinase activity of PTKs was first determined using a standard radiometric PTK activity assay. This assay contains polyE4Y as the phosphate accepting substrate, [γ-^32P]-ATP, and MgCl2. After a reaction time of 30 min at 30° C., 35 μl of the reaction mixture was removed and spotted onto a filter paper and placed into warm 5% trichloroacetic acid (TCA). The TCA stops the kinase reaction, precipitates the proteins and polyE4Y onto the filter paper, and washes the un-reacted ATP and others away. After 3 TCA washes for 10 min each, the radioactivity remaining on the filter paper was determined by liquid scintillation counting. The assays were done in duplicates and repeated at least three times. Control reactions lacking polyE4Y were included for each enzyme concentration to correct for any non-polyE4Y specific phosphorylation. […] The inhibitory mechanism was determined based on the effect of the compound on the Km and Vm values Inhibitory constant (Ki) was determined by using Sigma Plot 8.0 Enzyme Kinetics Module.

Src [2] = biological target: T1, Src; test: Radioactive kinase assay, polyE4Y phosphorylation by Src (peptides, N-heteroaromatics and conjugates); type: biochemical
[3] = read-out: IC50, inhibition of polyE4Y phosphorylation by Src

SMILES: CC[C@H](C)[C@H](NC(=O)[C@H](CCC(=O)O)NC(=O)[C@H](CCC(=O)O)NC(=O)[C@H](Cc1ccc(OP(=O)(O)O)cc1)NC(=O)CCC(=O)NCCCOCCOCCOCCCNS(=O)(=O)c1ccc(C(=O)OC[C@H]2O[C@@H](n3cnc4c(N)ncnc43)[C@H](O)[C@@H]2O)cc1)C(=O)O [Compound 9, 4-(sulfamoyl)benzoyladenosine-pYEEI]
- IC50 (Src [1]): > 300 µM
- enhancement of catalytic activity and phosphorylation (Src [1]; Src): at least 40%

SMILES: CC[C@H](C)[C@H](NC(=O)[C@H](CCC(=O)O)NC(=O)[C@H](CCC(=O)O)NC(=O)[C@H](Cc1ccc(OP(=O)(O)O)cc1)NC(=O)CCC(=O)NCCCOCCOCCOCCCN)C(=O)O [Compound 16, H2N-1,13-Trioxa-Suc-pTyr-Glu-Glu-Ile-OH]
- Ki (Src [1]): 608 µM

SMILES: CC[C@H](C)[C@H](NC(=O)[C@H](Cc1ccc(O)cc1)NC(C)=O)C(=O)N[C@@H](Cc1ccc(O)cc1)C(=O)NCC(=O)N[C@@H](CO)C(=O)N[C@@H](Cc1ccccc1)C(=O)N[C@@H](CCCCN)C(=O)O [Compound 41, Ac-YIYGSFK, reference compound] (Ac-YIYGSFK-OH; C-terminus assumed)
- IC50 (Src [2]; [3]): 570 µM

SMILES: CC[C@H](C)[C@H](NC(=O)[C@H](CS)NC(C)=O)C(=O)N[C@@H](Cc1ccc(O)cc1)C(=O)N[C@@H](CCCCN)C(=O)N[C@@H](Cc1ccc(NS(C)(=O)=O)cc1)C(=O)N[C@@H](Cc1ccc(O)cc1)C(=O)O [Compound 80, Ac-CIYKF(4-NHSO2CH3)Y] (Ac-CIYK[X2]Y-OH)
- IC50 (Src [2]): > 100 µM

More lines, now with the values ahead:

- IC50 (Src [2]; [3]): 2.7 µM
SMILES: CC[C@H](C)[C@H](NC(=O)[C@H](Cc1ccc(O)cc1)NC(=O)Cn1nc(-c2ccccc2)c2c(N)ncnc21)C(=O)N[C@@H](Cc1ccc(O)cc1)C(=O)NCC(=O)N[C@@H](CO)C(=O)N[C@@H](Cc1ccccc1)C(=O)N[C@@H](CCCCN)C(=O)O [Compound 43] (X1-YIYGSFK-OH)

- Src inhibitory potency in words (Src [2]; qualitative, relative to parent or comparator named in the text): not active
SMILES: CC[C@H](C)[C@H](NC(=O)[C@H](CS)NC(C)=O)C(=O)N[C@@H](Cc1ccc(O)cc1)C(=O)N[C@@H](CCCCN)C(=O)N[C@@H](Cc1ccc(O)cc1)C(=O)N[C@@H](Cc1ccc(N)cc1)C(=O)O [Compound 68, Ac-CIYKYF(NH2)] (Ac-CIYKY[Phe(4-NH2)]-OH)

- IC50 (Src [2]; modified peptide analogs, read-out: IC50 (μM), Src kinase inhibitory potency (Table 1)): > 100 µM
SMILES: CC[C@H](C)[C@H](NC(=O)[C@@H](N)Cc1ccc(O)cc1)C(=O)N[C@@H](Cc1ccc(O)cc1)C(=O)NCC(=O)N[C@@H](CO)C(=O)N[C@@H](Cc1ccccc1)C(=O)N[C@@H](CCCCN)C(=O)O [Compound 85, YIYGSFK] (H-YIYGSFK-OH)
